{"source": "ChEMBL document CHEMBL4257493", "about": "“Discovery of 7-hydroxyaporphines as conformationally restricted ligands for beta-1 and beta-2 adrenergic receptors” (Medchemcomm, 2018)", "target": "Beta-2 adrenergic receptor (Homo sapiens, UniProt P07550)", "sequence (P07550 whole entry)": "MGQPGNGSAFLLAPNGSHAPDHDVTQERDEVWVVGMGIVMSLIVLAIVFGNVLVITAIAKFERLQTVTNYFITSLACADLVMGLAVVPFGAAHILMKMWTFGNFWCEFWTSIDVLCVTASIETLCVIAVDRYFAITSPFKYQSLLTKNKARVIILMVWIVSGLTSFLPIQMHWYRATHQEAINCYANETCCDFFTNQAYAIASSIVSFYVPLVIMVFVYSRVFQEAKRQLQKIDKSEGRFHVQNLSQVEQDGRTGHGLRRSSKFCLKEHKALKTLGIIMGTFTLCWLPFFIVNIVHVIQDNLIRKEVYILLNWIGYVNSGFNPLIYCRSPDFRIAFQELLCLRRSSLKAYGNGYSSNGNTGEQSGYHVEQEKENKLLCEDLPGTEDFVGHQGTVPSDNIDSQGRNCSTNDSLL", "assay": "Displacement of [3H]-CGP-12177 from human beta2-adrenergic receptor", "data": [{"smiles": "COc1cc2c3c(c1OC)-c1ccccc1[C@@H](O)[C@H]3NCC2", "values": [{"measurement": "IC50", "value": 0.21, "unit": "µM"}]}]}
